# System: 598228-144-R-J1-PDC complex spheroid viability
# Assay: Anticancer human tumor 598228-144-R-J1-PDC patient-derived serous endometrial adenocarcinoma cell line growth inhibition [GQUAD]
# Details: for IC50: curve of first compound; for viability, T/C: stronger effect = lower value
# Procedure, shortened: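 Tumor cells were grown as complex spheroids with HUVEC endothelial cells and mesenchymal stem cells as stroma. G-quadruplex stabilizers were combined with targeted agents over half-log dilutions from near the clinical Cmax, or from 10 microM.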
# [1] = second compound 0.0316 µM, first compound 0.0316 µM
# [2] = second compound 0.0316 µM, first compound 0.1 µM
# [3] = second compound 0.0316 µM, first compound 0.316 µM
# [4] = second compound 0.0316 µM, first compound 1 µM
# [5] = second compound 0.0316 µM, first compound 3.16 µM
# [6] = second compound 0.0316 µM, first compound 10 µM
# [7] = second compound 0.1 µM, first compound 0.0316 µM
# [8] = second compound 0.1 µM, first compound 0.1 µM
# [9] = second compound 0.1 µM, first compound 0.316 µM
# [10] = second compound 0.1 µM, first compound 1 µM
# [11] = second compound 0.1 µM, first compound 3.16 µM
# [12] = second compound 0.1 µM, first compound 10 µM
# [13] = second compound 0.316 µM, first compound 0.0316 µM
# [14] = second compound 0.316 µM, first compound 0.1 µM
# [15] = second compound 0.316 µM, first compound 0.316 µM
# [16] = second compound 0.316 µM, first compound 1 µM
# [17] = second compound 0.316 µM, first compound 3.16 µM
# [18] = second compound 0.316 µM, first compound 10 µM
# [19] = second compound 1 µM, first compound 0.0316 µM
# [20] = second compound 1 µM, first compound 0.1 µM
# [21] = second compound 1 µM, first compound 0.316 µM
# [22] = second compound 1 µM, first compound 1 µM
# [23] = second compound 1 µM, first compound 3.16 µM
# [24] = second compound 1 µM, first compound 10 µM
# [25] = second compound 3.16 µM, first compound 0.0316 µM
# [26] = second compound 3.16 µM, first compound 0.1 µM
# [27] = second compound 3.16 µM, first compound 0.316 µM
# [28] = second compound 3.16 µM, first compound 1 µM
# [29] = second compound 3.16 µM, first compound 3.16 µM
# [30] = second compound 3.16 µM, first compound 10 µM
# [31] = second compound 10 µM, first compound 0.0316 µM
# [32] = second compound 10 µM, first compound 0.1 µM
# [33] = second compound 10 µM, first compound 0.316 µM
# [34] = second compound 10 µM, first compound 1 µM
# [35] = second compound 10 µM, first compound 3.16 µM
# [36] = second compound 10 µM, first compound 10 µM
# 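Further: spheroids exposed to the agents for one week before reading.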
# 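Wherever viability, T/C is given: percent of vehicle DMSO control viability so 100% = untreated growth.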
compound,measurement,setting,value
O=C(c1cc(Cc2n[nH]c(=O)c3ccccc23)ccc1F)N1CCN(C(=O)C2CC2)CC1 + CN(C)c1ccc(Nc2c3ccc(NC(=O)CCN4CCCC4)cc3nc3cc(NC(=O)CCN4CCCC4)ccc23)cc1,IC50,second compound 0.0316 µM,> 10000 nM
same,IC50,second compound 0.1 µM,> 10000 nM
same,IC50,second compound 0.316 µM,> 10000 nM
same,IC50,second compound 1 µM,> 10000 nM
same,IC50,second compound 3.16 µM,> 10000 nM
same,IC50,second compound 10 µM,> 10000 nM
same,"viability, T/C",[1],84.9%
same,"viability, T/C",[2],92.6%
same,"viability, T/C",[3],79.7%
same,"viability, T/C",[4],92.9%
same,"viability, T/C",[5],95%
same,"viability, T/C",[6],75.8%
same,"viability, T/C",[7],110%
same,"viability, T/C",[8],101%
same,"viability, T/C",[9],91%
same,"viability, T/C",[10],84.4%
same,"viability, T/C",[11],87.2%
same,"viability, T/C",[12],75.1%
same,"viability, T/C",[13],98%
same,"viability, T/C",[14],85.3%
same,"viability, T/C",[15],96.6%
same,"viability, T/C",[16],91.1%
same,"viability, T/C",[17],93.9%
same,"viability, T/C",[18],65.9%
same,"viability, T/C",[19],82.5%
same,"viability, T/C",[20],93.9%
same,"viability, T/C",[21],103%
same,"viability, T/C",[22],87.5%
same,"viability, T/C",[23],87.4%
same,"viability, T/C",[24],54.1%
same,"viability, T/C",[25],98.8%
same,"viability, T/C",[26],91.8%
same,"viability, T/C",[27],92.8%
same,"viability, T/C",[28],88.3%
same,"viability, T/C",[29],92.9%
same,"viability, T/C",[30],68.3%
same,"viability, T/C",[31],76.4%
same,"viability, T/C",[32],89.3%
same,"viability, T/C",[33],91.9%
same,"viability, T/C",[34],73.8%
same,"viability, T/C",[35],89.7%
same,"viability, T/C",[36],50.3%
COc1cc(C2c3cc4c(cc3C(OC3OC5COC(C)OC5C(O)C3O)C3COC(=O)C23)OCO4)cc(OC)c1O (stereo unspecified) + Cc1cnc(CNC(=O)c2c(=O)c3ccc(N4CCCN(C)CC4)nc3n3c2sc2ccccc23)cn1,IC50,second compound 0.0316 µM,8680 nM
same,IC50,second compound 0.1 µM,> 10000 nM
same,IC50,second compound 0.316 µM,> 10000 nM
same,IC50,second compound 1 µM,> 10000 nM
same,IC50,second compound 3.16 µM,3430 nM
same,IC50,second compound 10 µM,765 nM
same,"viability, T/C",[1],79.7%
same,"viability, T/C",[2],85.8%
same,"viability, T/C",[3],88.4%
same,"viability, T/C",[4],58.6%
same,"viability, T/C",[5],79.8%
same,"viability, T/C",[6],46.1%
same,"viability, T/C",[7],89.4%
same,"viability, T/C",[8],60.1%
same,"viability, T/C",[9],54.8%
same,"viability, T/C",[10],66.4%
same,"viability, T/C",[11],55.1%
same,"viability, T/C",[12],44.4%
same,"viability, T/C",[13],87.8%
same,"viability, T/C",[14],62%
same,"viability, T/C",[15],64.2%
same,"viability, T/C",[16],72.1%
same,"viability, T/C",[17],67%
same,"viability, T/C",[18],47.8%
same,"viability, T/C",[19],64.2%
same,"viability, T/C",[20],69.9%
same,"viability, T/C",[21],74.7%
same,"viability, T/C",[22],72%
same,"viability, T/C",[23],71.9%
same,"viability, T/C",[24],46.9%
same,"viability, T/C",[25],64.6%
same,"viability, T/C",[26],70.7%
same,"viability, T/C",[27],73.3%
same,"viability, T/C",[28],61.7%
same,"viability, T/C",[29],51.8%
same,"viability, T/C",[30],35%
same,"viability, T/C",[31],57.6%
same,"viability, T/C",[32],45.2%
same,"viability, T/C",[33],52.1%
same,"viability, T/C",[34],47.5%
same,"viability, T/C",[35],43.2%
same,"viability, T/C",[36],9.83%
COc1cccc2c1C(=O)c1c(O)c3c(c(O)c1C2=O)CC(O)(C(=O)CO)CC3OC1CC(N)C(O)C(C)O1 (stereo unspecified) + Cc1[nH]c2ccc(F)cc2c1-c1nc2c3cccnc3c3ncccc3c2[nH]1,IC50,second compound 0.0316 µM,658 nM
same,IC50,second compound 0.1 µM,889 nM
same,IC50,second compound 0.316 µM,1040 nM
same,IC50,second compound 1 µM,418 nM
same,IC50,second compound 3.16 µM,< 31.6 nM
same,IC50,second compound 10 µM,646 nM
same,"viability, T/C",[1],97.1%
same,"viability, T/C",[2],81.6%
same,"viability, T/C",[3],69.8%
same,"viability, T/C",[4],42.8%
same,"viability, T/C",[5],5.14%
same,"viability, T/C",[6],0.27%
same,"viability, T/C",[7],88.7%
same,"viability, T/C",[8],77.2%
same,"viability, T/C",[9],78.6%
same,"viability, T/C",[10],47%
same,"viability, T/C",[11],2.77%
same,"viability, T/C",[12],0.42%
same,"viability, T/C",[13],84.7%
same,"viability, T/C",[14],72.8%
same,"viability, T/C",[15],74.7%
same,"viability, T/C",[16],51.9%
same,"viability, T/C",[17],3.76%
same,"viability, T/C",[18],1.38%
same,"viability, T/C",[19],67.3%
same,"viability, T/C",[20],48.8%
same,"viability, T/C",[21],54.3%
same,"viability, T/C",[22],34.7%
same,"viability, T/C",[23],4.19%
same,"viability, T/C",[24],1.39%
same,"viability, T/C",[25],38.9%
same,"viability, T/C",[26],36.8%
same,"viability, T/C",[27],31.8%
same,"viability, T/C",[28],25.4%
same,"viability, T/C",[29],1.9%
same,"viability, T/C",[30],1.11%
same,"viability, T/C",[31],57.1%
same,"viability, T/C",[32],72.3%
same,"viability, T/C",[33],49%
same,"viability, T/C",[34],46.1%
same,"viability, T/C",[35],5.49%
same,"viability, T/C",[36],0.68%
